Measurements as given in patent US10428043B2, “Green oxidation catalytic system” (TRUSTEES OF BOSTON UNIVERSITY, priority 2014, dated 2019).
“And” between values parts separate entries of the source, which are not always exact repeats. Equal values may be shown once. Read-outs that look alike come from different tables or passages of the source.

Assays:
[1] = Cyclic voltammetry, redox potentials; format: physicochemical
Source text: All reagents and solvents used were purchased from commercial sources and used as received unless otherwise noted. Prior to use, methanol (Pharmco-Aaper) was distilled over magnesium metal, dimethyl sulfoxide (Fisher Scientific) was distilled over calcium hydride, triethylamine was distilled over sodium metal and unstabilized dichloromethane (Fisher Scientific) was distilled over calcium hydride. Ferrocene was purified by sublimation for use as a reference for electrochemical analyses. All manipulations involving ferrous complexes were carried out in an inert atmosphere glovebox (M. Braun, Stratham, N.H.) with distilled and thoroughly degassed solvents. UV/Vis spectra were collected using a Hewlett Packard Spectrometer (8453). IR spectra were collected using a Thermo Nicolet AVATAR 330-FT-IR. Cyclic voltammetry experiments were performed using a Princeton Applied Research model 273 potentiostat with a glassy carbon working electrode, a silver wire reference electrode and a platinum wire counter electrode. Electron Paramagnetic Resonance (EPR) spectra were collected on a Bruker ESP-300E spectrometer operating at 9.460 GHz. NMR spectra were recorded at 25° C. using a Varian spectrometer operating at 400 MHz with all chemical shifts referenced to SiMe4. Iron concentrations were determined using a Varian AA240Z Atomic Absorption Spectrometer.
Cyclic voltammetry was performed inside an inert atmosphere (N2) box, with degassed DMSO as the solvent and tetra-N-butylammonium hexafluorophosphate as the supporting electrolyte (0.2M). The ferrocenium/ferrocene couple was used as an internal reference; reduction potential values were corrected by assigning the ferrocenium/ferrocene couple to 0.64 V versus NHE (Zanello, P. Inorganic Electrochemistry; The Royal Society of Chemistry: Cambridge, 2003). Chloride titration experiments were performed by collecting CV data after the addition of one and two 50 μL aliquots of 204 mM [NEt4][Cl] to 3.0 mL of 3.4 mM [Fe^II(N2O1py)(Cl)2]^− (concentration determined using flame atomic absorption spectroscopy) and correcting the potential with reference to the ferrocenium/ferrocene couple.
It should be noted that these redox potentials were determined in the absence of excess halide, and further CV studies will be performed in the presence of excess halide for all derivatives of the N2O1py system.

Solubility = format: physicochemical
[2] = Room temperature O2 reactivity of ferrous complexes followed by UV/vis
Description: The solution was transferred to an anaerobic UV/vis cell and sealed. An initial spectrum was obtained of the ferrous complex, and then the solution was exposed to the air. Spectra were recorded every minute for the first two minutes and then every 5-30 minutes after that for seven hours. The absorbance was monitored at 350 nm to follow formation of the oxidized complex.
This solution was then transferred to an anaerobic UV/vis cell and sealed. An initial spectrum was obtained of the ferrous complex, and then the solution was exposed to the air. Spectra were collected every minute for the first 30 minutes and then every 5-20 minutes after that for 2 hours. The absorbance was monitored at 315 nm to follow formation of the oxidized complex.

[3] = Low-temperature stopped-flow kinetics of adduct complexes with dioxygen; conditions: −85° C.
Description: Stopped-flow Spectroscopy and Data analysis.
Kinetic studies of [Fe^II(N2O1)(α-KG)(CH3OH)]^− and [Fe^II(N2O1)(p-X-BF)(CH3OH)]^− adduct complexes with dioxygen. Low-temperature stopped flow studies of this reaction were performed.
Order dependence analysis.
The kinetic model was built by starting from simple two- and three-exponential processes.
Stoichiometry of the equations for the proposed model in FIG. 29: […]

[4] = Catalytic oxidation of methanol to formaldehyde with α-KG and O2 (Nash assay)
[5] = vs. NHE, quasi-reversible; Thesis of Tarves 2012; cited from earlier work
[6] = calculated from redox potentials for the one-electron transfer between iron and dioxygen
[7] = [24] 1.0 mM, O2 5 mM, benzoate 3.1 mM
[8] = complex 0.94-1.1 mM, O2 5 mM, methanol

Question: For CN(CC(=O)[O-])Cc1ccccn1.[Cl-].[Cl-].[Fe+2] [[Fe^II(N2O1py)(Cl)2]^−, [PSH][Fe^II(N2O1py)(Cl)2]], which redox potential [1] is on record?
Answer: The redox potential was 188 mV.

Question: And the E1/2 ([1]; DMSO, glassy carbon working electrode, absence of excess halide)?
Answer: The E1/2 was 216 mV.

Question: What about the Keq [1, 6] of the same molecule?
Answer: Its Keq is 1.7 × 10^−9.

Question: And the “ΔG°” value [1, 6]?
Answer: Its value is 50 kJ.

Question: And the ΔE ([1]; no added halide)?
Answer: The ΔE was 96 mV.

Question: What about the E1/2 ([1]; no added halide, in mV) of the same molecule?
Answer: Its E1/2 is “+216”.

Question: And the “solubility properties compared with the first generation catalyst” value (Solubility)?
Answer: Its value is “very similar solubility properties”.

Question: What about the “time for formation of the diferric oxo-bridged product on reaction with O2” value ([2]; methanol) of the same molecule?
Answer: Its value is greater than 7 h.

Question: For CN(C)CCN(C)CC(=O)[O-].CO.O=C([O-])C(=O)c1ccccc1.[Fe+2] [compound 24, [Fe^II(N2O1)(p-H-BF)]], which “k′1” value ([3]; [24] 0.47 mM, O2 5 mM) is on record?
Answer: The value was 8.5 ± 0.2 s⁻¹.

Question: What about the “k′2” value ([3]; [24] 0.47 mM, O2 5 mM) of the same molecule?
Answer: Its value is 170 ± 8 M⁻¹ s⁻¹.

Question: And the “k′2obs” value ([3]; [24] 0.47 mM, O2 5 mM)?
Answer: Its value is 0.9 ± 0.04 s⁻¹.

Question: What about the “k′3” value ([3]; [24] 0.47 mM, O2 5 mM) of the same molecule?
Answer: Its value is 21 ± 0.06 s⁻¹.

Question: And the “k′4” value ([3]; [24] 0.47 mM, O2 5 mM)?
Answer: Its value is 0.2 ± 0.01 s⁻¹.

Question: What about the “k′2obs” value ([3]; [24] 0.94 mM, O2 5 mM) of the same molecule?
Answer: The value was 0.13 ± 0.02 s⁻¹.

Question: What about the “k′1” value [3, 7] of the same molecule?
Answer: Its value is 0.04 ± 0.01 s⁻¹.

Question: And the “k′2” value [3, 7]?
Answer: The value was 2900 ± 500 M⁻¹ s⁻¹.

Question: What about the “k′3” value [3, 7] of the same molecule?
Answer: Its value is 0.25 ± 0.05 s⁻¹.

Question: What about the “k′4obs” value [3, 7] of the same molecule?
Answer: The value was 1.1 ± 0.2 s⁻¹.

Question: What about the “k′1” value ([3]; [24] 1.34 mM, O2 2.5 mM) of the same molecule?
Answer: Its value is 7 ± 1.2 s⁻¹.

Question: What about the “k′2obs” value ([3]; [24] 1.34 mM, O2 2.5 mM) of the same molecule?
Answer: The value was 0.2 ± 0.1 s⁻¹.

Question: And the “k′3” value ([3]; [24] 1.34 mM, O2 2.5 mM)?
Answer: The value was 14 ± 6 s⁻¹.

Question: What about the “k′4” value ([3]; [24] 1.34 mM, O2 2.5 mM) of the same molecule?
Answer: Its value is 0.2 ± 0.03 s⁻¹.

Question: What about the “k′1” value ([3]; [24] 1.34 mM, O2 3.5 mM) of the same molecule?
Answer: Its value is 9 ± 1.1 s⁻¹.

Question: What about the “k′2obs” value ([3]; [24] 1.34 mM, O2 3.5 mM) of the same molecule?
Answer: Its value is 0.5 ± 0.2 s⁻¹.

Question: What about the “k′3” value ([3]; [24] 1.34 mM, O2 3.5 mM) of the same molecule?
Answer: The value was 16 ± 4 s⁻¹.

Question: And the “k′4” value ([3]; [24] 1.34 mM, O2 3.5 mM)?
Answer: The value was 0.3 ± 0.09 s⁻¹.

Question: And the “k′1” value ([3]; [24] 1.34 mM, O2 5 mM)?
Answer: The value was 6.1 ± 0.9 s⁻¹ and 8 ± 0.9 s⁻¹.

Question: What about the “k′2” value ([3]; [24] 1.34 mM, O2 5 mM) of the same molecule?
Answer: Its value is 150 ± 5 M⁻¹ s⁻¹.

Question: And the “k′3” value ([3]; [24] 1.34 mM, O2 5 mM)?
Answer: Its value is 20 ± 1.1 s⁻¹ and 21 ± 5 s⁻¹.

Question: And the “k′1” value [3, 8]?
Answer: Its value is 7.8 ± 1.0 s⁻¹.

Question: And the “k′3” value [3, 8]?
Answer: The value was 20 ± 0.9 s⁻¹.

Question: What about the “k′4 (k′4obs)” value [3, 8] of the same molecule?
Answer: The value was 0.4 ± 0.03 s⁻¹.

Question: And the “TON predicted from the line of best fit in FIG. 2 for the α-KG adduct complex” value (from here on “TON predicted from the line of best fit”) ([4]; iron complex 0.47 mM)?
Answer: Its value is 0.9.

Question: And the “TON predicted from the line of best fit” value ([4]; iron complex 0.94 mM)?
Answer: The value was 0.6.

Question: And the “TON predicted from the line of best fit” value ([4]; iron complex 1.34 mM)?
Answer: The value was 0.3.

Question: What about the E1/2 [5] of the same molecule?
Answer: The E1/2 was 60 mV.

Question: What about the “rate of room temperature reactivity with O2 (time)” value [2] of the same molecule?
Answer: The value was roughly 200 min.
